In this assay the test system is Escherichia coli (E. coli—ATCC #10536). In words: Automated assessment of efficacy in model surfactant base (2.85% sodium cocoyl glycinate + 1.85% sodium lauroamphoacetate, pH 10), 15 seconds exposure, delta OD450/OD590 in D/E quench. The format is cell-based. How it is done:
Solutions were prepared such that the concentrations of the surfactant components and test actives were 1.1× the final desired concentration in order to allow for dilution with the bacterial inoculum in the test. The solutions were manually adjusted to pH 10.0 by dropwise addition of sodium hydroxide solution, as measured with a pH meter at ambient temperature.
Tests were conducted using standard microtiter plate assays using an automated liquid handling system. 270 μl of the surfactant test solution was pipetted into each well of the microtitre plate and 30 μl of the bacterial suspension was then added. After exactly 15 seconds of bacterial exposure, a 30 μl volume of bacterial cells was withdrawn and transferred to 270 μl of D/E quench solution. After 5 minutes in the D/E quench, the optical density (OD) was measured for each plate in turn at two specific wavelengths (450 nm and 590 nm). These provide a dual check of antimicrobial activity, as the OD450 reading is specific for the yellow colour of D/E quench when bacterial growth is observed, whereas OD590 is specific for the initial purple colour of the D/E quench which is retained if no bacterial growth is observed. After the time zero OD measurements, plates were then incubated at 37° C. overnight (16 hours) before repeating the OD measurements. Delta OD values were calculated by subtracting […]. Bacterial growth is observed as an increase in OD450 and a decrease in ΔOD590. To identify antibacterially efficacious systems (those preventing appreciable bacterial growth after incubation), the following threshold changes in OD readings have been adopted: if (1). OD450 increases by less than 0.2 absorbance unit on incubation and (2). OD590 decreases by less than 0.35 unit on incubation. Conversely, where OD450 increases by more than 0.2 AU and OD590 decreases by more than 0.35 unit after incubation, corresponding to a colour shift from purple to yellow, the test system allows bacterial growth and is not deemed efficacious. Four replicate measurements in the same plate have been made for each test system. The number of replicate wells showing either bacterial growth or no growth is also readily assessed by eye by following the colour change.
Dose responses for individual components and binary mixtures of actives at a fixed concentration ratio were generated by sequential dilution of liquors with further surfactant solution to obtain a series of endpoints.
In some selected cases, the combinations were also tested at the weight ratio 1:1.
The method used was the same as in the above Table.

With `C=C(C)C1CCC(C)C(O)C1` (stereo not shown) [2-methyl-5-(prop-1-en-2-yl)cyclohexanol], the MBC (Escherichia coli, ATCC10536, 15 s, in 2.85% sodium cocoyl glycinate + 1.85% sodium lauroamphoacetate solution at pH 10, E. coli, read-out: MBC) amounted to 4000 µg/mL. Moreover, where the note is “single active at 0.3% w/v”, the “No. of replicates showing growth (out of 4)” value is 4; the “Δ OD 590 nm = OD590 (time = 16 hours) − OD590 (time zero), Mean” value (shortened to “Δ OD 590 nm = OD590”) turned out to be 0.66; the “ΔOD 450 nm = OD450 (time = 16 hours) − OD450 (time zero), Mean” value (“ΔOD 450 nm = OD450” for short) is −0.44. Moreover, under “single active at 0.5% w/v”, the “No. of replicates showing growth (out of 4)” value stood at 0; the “Δ OD 590 nm = OD590” value was determined as 0.20; the “ΔOD 450 nm = OD450” value came out at 0.23. For the setting “single active at […] w/v”, the “No. of replicates showing growth (out of 4)” value amounted to 4; the “Δ OD 590 nm = OD590” value stood at 0.63; the “ΔOD 450 nm = OD450” value is reported as −0.50.

For orientation: MBC means the lowest tested concentration that kills the bacteria rather than only halting them.

The record behind these values is patent publication US9820483B2, “Microbial composition” (Rohm and Haas Company, priority 2011, dated 2017).
